From PubChem BioAssay AID330 (DTP/NCI, 2004) come the findings set out here.

Values joined by “and” are separate entries in the source; they are usually repeats but may differ in a detail not shown here. Identical values can stand only once. Inconclusive results and toxic doses are left out.

The assay concerns P388 leukemia ip, CD2F1 mice, survival T/C. The assay can be described thus: NCI In Vivo Anticancer Drug Screen. Data for tumor model P388 Leukemia (intraperitoneal) in CD2F1 (CDF1) mice. The settings on record: endpoint: median survival time, higher = longer survival. The method in brief:
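Mice carrying the transplanted tumor received test compound or vehicle. Survival was recorded in each group, and the value is the treated-group measurement divided by that of the vehicle-treated control group.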

[1] abbreviates: dose: 50.0 mg/kg/injection, schedule: Q01DX009 (ip), vehicle: Klucel (hydroxypropylcellulose) (HPC).
The mark [2] stands for this setting: dose: 100.0 mg/kg/injection, schedule: Q01DX009 (ip), vehicle: Klucel (hydroxypropylcellulose) (HPC).
Setting [3] is: dose: 60.0 mg/kg/injection, schedule: Q01DX005 (ip), vehicle: saline with Tween-80.
Where [4] appears, read: dose: 120.0 mg/kg/injection, schedule: Q01DX005 (ip), vehicle: saline with Tween-80.
Setting [5] is: dose: 240.0 mg/kg/injection, schedule: Q01DX005 (ip), vehicle: saline with Tween-80.
[6] abbreviates: dose: 100.0 mg/kg/injection, schedule: Q04DX003 (ip), vehicle: Klucel (hydroxypropylcellulose) (HPC).
[7] abbreviates: dose: 50.0 mg/kg/injection, schedule: Q01DX005 (ip), vehicle: saline with Tween-80.
Where [8] appears, read: dose: 100.0 mg/kg/injection, schedule: Q01DX005 (ip), vehicle: saline with Tween-80.
Where [9] appears, read: dose: 200.0 mg/kg/injection, schedule: Q01DX005 (ip), vehicle: saline with Tween-80.
The mark [10] stands for this setting: dose: 200.0 mg/kg/injection, schedule: Q01DX009 (ip), vehicle: Klucel (hydroxypropylcellulose) (HPC).
Where [11] appears, read: dose: 50.0 mg/kg/injection, schedule: Q01DX005 (ip), vehicle: Klucel (hydroxypropylcellulose) (HPC).
Where [12] appears, read: dose: 100.0 mg/kg/injection, schedule: Q01DX005 (ip), vehicle: Klucel (hydroxypropylcellulose) (HPC).

For `Nc1nc(N)c2nn(C3OC(CO)C(O)C3O)nc2n1` (centres undefined), the T/C by setting is: (dose: 25.0 mg/kg/injection, schedule: Q01DX001 (ip), vehicle: saline) 103 % of control; (dose: 50.0 mg/kg/injection, schedule: Q01DX001 (ip), vehicle: saline) 94 % of control; (dose: 100.0 mg/kg/injection, schedule: Q01DX001 (ip), vehicle: saline) 105 % of control; (dose: 200.0 mg/kg/injection, schedule: Q01DX001 (ip), vehicle: saline) 100 % of control; (dose: 400.0 mg/kg/injection, schedule: Q01DX001 (ip), vehicle: saline) 100 % of control.
For `CC#CC#C/C=C1/C=CC(=O)O1`, the T/C (dose: 12.5 mg/kg/injection, schedule: Q01DX009 (ip), vehicle: Klucel (hydroxypropylcellulose) (HPC)) is 105 % of control; the T/C (dose: 25.0 mg/kg/injection, schedule: Q01DX009 (ip), vehicle: Klucel (hydroxypropylcellulose) (HPC)) is 104 % of control; the T/C under setting [1] was 107 % of control; the T/C under setting [2] is 107 % of control.
Turning to `O=[N+]([O-])C1=NOCC1`, the T/C (dose: 50.0 mg/kg/injection, schedule: Q01DX005 (ip), vehicle: suspension in saline) was 95 % of control and the T/C (dose: 100.0 mg/kg/injection, schedule: Q01DX005 (ip), vehicle: suspension in saline) is 95 % of control.
Turning to `COc1cc2c(cc1O)CCCC=C2`, the T/C (dose: 100.0 mg/kg/injection, schedule: Q01DX009 (ip), vehicle: gum acacia) is 113 % of control; the T/C (dose: 200.0 mg/kg/injection, schedule: Q01DX009 (ip), vehicle: gum acacia) was 105 % of control; the T/C (dose: 400.0 mg/kg/injection, schedule: Q01DX009 (ip), vehicle: gum acacia) was 106 % of control.
With `O=P1(NC23CC4CC(CC(C4)C2)C3)OC(CCl)=NC1c1ccc(C2N=C(CCl)OP2(=O)NC23CC4CC(CC(C4)C2)C3)cc1` (centres undefined), the T/C under setting [3] is 98 % of control, the T/C under setting [4] was 98 % of control and the T/C under setting [5] was 98 % of control.
With `CC(C)(C)NC(Cc1ccccc1)=NC1CCCCC1`, the T/C was 103 % of control (dose: 12.5 mg/kg/injection, schedule: Q04DX002 (ip), vehicle: saline) and 101 % of control (dose: 25.0 mg/kg/injection, schedule: Q04DX002 (ip), vehicle: saline).
`NC(=S)c1cccc(C=Nc2ccccc2)n1`: the T/C runs as follows: (dose: 12.5 mg/kg/injection, schedule: Q04DX003 (ip), vehicle: Klucel (hydroxypropylcellulose) (HPC)) 106 % of control; (dose: 25.0 mg/kg/injection, schedule: Q04DX003 (ip), vehicle: Klucel (hydroxypropylcellulose) (HPC)) 105 % of control; (dose: 50.0 mg/kg/injection, schedule: Q04DX003 (ip), vehicle: Klucel (hydroxypropylcellulose) (HPC)) 97 % of control; under setting [6], 91 % of control.
As to `CC/C(=C(/CC)c1ccc(OCC(=O)N/N=C2\CCC3C4CCc5cc(O)ccc5C4=CCC23C)cc1)c1ccc(OCC(=O)N/N=C2/CCC3C4CCc5cc(O)ccc5C4=CCC23C)cc1` (centres undefined), the T/C (dose: 50.0 mg/kg/injection, schedule: Q01DX001 (ip), vehicle: Klucel (hydroxypropylcellulose) (HPC)) was 96 % of control; the T/C (dose: 100.0 mg/kg/injection, schedule: Q01DX001 (ip), vehicle: Klucel (hydroxypropylcellulose) (HPC)) is 95 % of control; the T/C (dose: 200.0 mg/kg/injection, schedule: Q01DX001 (ip), vehicle: Klucel (hydroxypropylcellulose) (HPC)) was 87 % of control.
Consider `O=C1OC(c2ccccc2)N/C1=C\c1ccc(OCc2ccccc2)c(OCc2ccccc2)c1` (centres undefined), for which the T/C was 94 % of control under setting [6]; 87 % of control (dose: 200.0 mg/kg/injection, schedule: Q04DX003 (ip), vehicle: Klucel (hydroxypropylcellulose) (HPC)); 90 % of control (dose: 400.0 mg/kg/injection, schedule: Q04DX003 (ip), vehicle: Klucel (hydroxypropylcellulose) (HPC)).
For `O=c1c2cncnc2sc2nccn12`, the T/C under setting [3] is 99 % of control, the T/C under setting [4] was 98 % of control and the T/C under setting [5] was 95 % of control.
`CCCCCNCC(=O)N1CCCC1C(=O)OC(C)(C)C` (centres undefined): the T/C under setting [7] was 97 % of control, the T/C under setting [8] is 105 % of control and the T/C under setting [9] is 103 % of control.
For the compound `COc1ccc2nc(-c3ccccc3)cc(N=[N+]=[N-])c2c1`, the T/C is, setting by setting: under setting [3], 100 % of control; under setting [4], 97 % of control; under setting [5], 102 % of control.
For the compound `COc1cc(C)c(S(C)=O)cc1OC` (centres undefined), the T/C (dose: 50.0 mg/kg/injection, schedule: Q01DX009 (ip), vehicle: saline) is 98 % of control; the T/C (dose: 100.0 mg/kg/injection, schedule: Q01DX009 (ip), vehicle: saline) is 90 % of control; the T/C (dose: 200.0 mg/kg/injection, schedule: Q01DX009 (ip), vehicle: saline) was 98 % of control.
Consider `CCOC(=O)/C(=C\Nc1cccc(OCc2ccccc2)c1)NC(=O)c1ccccc1`, for which the T/C is 87 % of control under setting [1]; 88 % of control under setting [2]; 86 % of control and 96 % of control under setting [10]; 97 % of control (dose: 400.0 mg/kg/injection, schedule: Q01DX009 (ip), vehicle: Klucel (hydroxypropylcellulose) (HPC)).
Take `CC(=O)O[C@]1(C(C)=O)CC[C@H]2[C@@H]3C[C@H](C)C4=CC(=O)NCC[C@]4(C)[C@H]3CC[C@@]21C`: the T/C was 98 % of control (dose: 50.0 mg/kg/injection, schedule: Q01DX005 (ip), vehicle: Klucel + Tween-80); 93 % of control (dose: 100.0 mg/kg/injection, schedule: Q01DX005 (ip), vehicle: Klucel + Tween-80); 94 % of control (dose: 200.0 mg/kg/injection, schedule: Q01DX005 (ip), vehicle: Klucel + Tween-80).
In the case of `c1ccc2c(-c3ccncc3)c3c(ccc4ccccc43)cc2c1`, the T/C was 100 % of control under setting [7], 98 % of control under setting [8] and 89 % of control under setting [9].
With `CCOC(=O)C(=CNc1ccc2n[nH]nc2c1)C(=O)OCC`, the T/C runs as follows: under setting [1], 100 % of control; under setting [2], 108 % of control.
`CCCCCCCCCCCCCCCC[N+](C)(CCO)Cc1ccccc1` (centres undefined): the T/C by setting is: (dose: 6.25 mg/kg/injection, schedule: Q04DX002 (ip), vehicle: saline with Tween-80) 112 % of control; (dose: 12.5 mg/kg/injection, schedule: Q04DX002 (ip), vehicle: saline with Tween-80) 116 % of control.
`CCN(CC)CCNC1CC(C)CC(C)(C)C1` (centres undefined): the T/C is 103 % of control under setting [7] and 101 % of control under setting [8].
For the compound `CCN(CC)C(=Nc1ccccc1)NC#N`, the T/C is 110 % of control under setting [11]; 105 % of control under setting [12]; 96 % of control (dose: 200.0 mg/kg/injection, schedule: Q01DX005 (ip), vehicle: Klucel (hydroxypropylcellulose) (HPC)).
`O=C1OCC/C1=C\NCCCN/C=C1\CCOC1=O`: the T/C is, setting by setting: under setting [3], 107 % of control; under setting [4], 100 % of control; under setting [5], 105 % of control.
Turning to `Cc1ccc2c(c1)nc1cc3c(cc1n2C1CCCCC1)c(Cl)c(=O)c1ccccc13`, the T/C runs as follows: (dose: 50.0 mg/kg/injection, schedule: Q01DX009 (ip), vehicle: saline with Tween-80) 92 % of control; (dose: 100.0 mg/kg/injection, schedule: Q01DX009 (ip), vehicle: saline with Tween-80) 92 % of control; (dose: 200.0 mg/kg/injection, schedule: Q01DX009 (ip), vehicle: saline with Tween-80) 98 % of control.
For the compound `CC(C)(C)C(=O)Nc1c(Cl)c(C2CC2)nn1-c1ccccc1`, the T/C by setting is: under setting [3], 100 % of control; under setting [4], 102 % of control; under setting [5], 90 % of control.
As to `CCCCN(CCCC)C(=S)C(O)(c1ccccc1)c1ccccc1`, the T/C under setting [1] was 95 % of control, the T/C under setting [2] was 91 % of control and the T/C under setting [10] was 90 % of control.
Consider `O=C(Nc1cc(Cl)c(Cl)cc1Cl)N1CCOCC1`, for which the T/C runs as follows: under setting [3], 104 % of control; under setting [4], 105 % of control; under setting [5], 102 % of control.
In the case of `NC(Cc1ccccc1)=S=O`, the T/C (dose: 100.0 mg/kg/injection, schedule: Q04DX002 (ip), vehicle: Klucel (hydroxypropylcellulose) (HPC)) is 97 % of control and the T/C (dose: 200.0 mg/kg/injection, schedule: Q04DX002 (ip), vehicle: Klucel (hydroxypropylcellulose) (HPC)) was 95 % of control.
Regarding `O=C1/C(=C/c2cccc([N+](=O)[O-])c2)SC(=S)N1C1CC1`, the T/C runs as follows: under setting [11], 89 % of control; under setting [12], 89 % of control.
